For 18 molecules, Kd results are on record in patent US10934274B2, “Quinoline derivatives as TAM RTK inhibitors” (Qurient Co., Ltd., priority 2015, dated 2021).

The target in test [1] is T1, Met (Homo sapiens, UniProt P08581).
T1 construct: purchased Life Technologies
As to the kind of experiment: LanthaScreen Eu kinase binding assay, Met. As to conditions: Tracer 236, read-out: cMet kinase binding activity (Kd). Here is the method: (§1) LanthaScreen® Eu Kinase Binding assays were conducted at Life Technologies using the manufacturer's specifications for each kinase indicated.
(§2) Briefly, the principle behind this assay is based upon the binding and displacement of an Alexa Fluor 647-labeled tracer to the kinase of interest. Binding of the tracer to the kinase is detected using an EU-labeled anti-tag antibody. Simultaneous binding of both the tracer and antibody to the kinase gives rise to a FRET-signal. Binding of an inhibitor to the kinase competes for binding with the tracer, resulting in a loss of FRET-signal.
(§3) Binding Assay Protocol for AXL, Mer, Tyro3 and Met
(§4) A given compound was diluted in DMSO to make a stock compound solution. The stock compound solution was serially diluted over eight steps in DMSO. Each diluted compound solution in DMSO was diluted in kinase buffer. Afterwards four kinds of working solution were prepared. First, Tracer-Working solution consists of Tracer 236 and Kinase Buffer. Second, Axl, Mer, Tyro3 or Met/anti-GST-AB-Working solution contained one of the kinases Axl, Mer, Tyro3, Met or anti-GST-AB (=anti glutathione-S-transferase antibody) in Kinase Buffer. Third, anti-GST-AB-Working solution was made with anti-GST-AB and Kinase Buffer. Last, in the DMSO-Working solution DMSO was added to Kinase Buffer to a final concentration to 3%. Each of the four kinds of working solutions were separately added to the assay plate and then incubated for 1 h at room temperature. After incubation, the assay plate was measured with respect to the FRET-Signal with the EnVision (Perkin Elmer) using the program LanthaHTRF-Assay. Data evaluation was done in the Quattro Workflow software.
(§5) Table 1 summarises the results obtained for AXL, Mer and Tyro3-kinases binding assays; table 2 summarises the results obtained for the Met kinase binding assay.
(TR-FRET usually uses a lanthanide donor and a delayed reading to cut background.)

In test [2] the target is T2, TYRO3 (Homo sapiens, UniProt Q06418).
T2 construct: purchased Life Technologies
T2 sequence (Q06418 41-890): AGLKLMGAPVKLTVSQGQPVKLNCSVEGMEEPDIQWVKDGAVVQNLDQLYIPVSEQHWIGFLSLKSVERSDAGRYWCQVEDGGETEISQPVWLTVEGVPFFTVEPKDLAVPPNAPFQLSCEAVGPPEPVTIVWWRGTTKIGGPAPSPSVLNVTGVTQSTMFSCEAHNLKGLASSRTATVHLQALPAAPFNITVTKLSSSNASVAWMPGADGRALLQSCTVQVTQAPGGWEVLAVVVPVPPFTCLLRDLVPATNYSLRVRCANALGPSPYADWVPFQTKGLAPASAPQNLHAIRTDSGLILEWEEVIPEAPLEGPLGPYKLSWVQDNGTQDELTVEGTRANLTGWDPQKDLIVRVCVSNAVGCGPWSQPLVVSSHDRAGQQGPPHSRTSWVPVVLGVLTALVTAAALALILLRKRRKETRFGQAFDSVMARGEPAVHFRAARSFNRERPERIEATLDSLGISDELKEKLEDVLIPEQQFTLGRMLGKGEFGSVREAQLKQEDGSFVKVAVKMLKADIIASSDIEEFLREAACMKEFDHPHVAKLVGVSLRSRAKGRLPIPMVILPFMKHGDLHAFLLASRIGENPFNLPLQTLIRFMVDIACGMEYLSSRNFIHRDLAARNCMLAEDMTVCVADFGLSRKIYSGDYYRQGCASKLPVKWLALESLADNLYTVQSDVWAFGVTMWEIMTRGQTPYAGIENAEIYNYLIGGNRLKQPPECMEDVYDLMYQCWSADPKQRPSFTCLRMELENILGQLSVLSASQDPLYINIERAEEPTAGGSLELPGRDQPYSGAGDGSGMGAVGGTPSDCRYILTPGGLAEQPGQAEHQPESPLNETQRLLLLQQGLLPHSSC
As to the kind of experiment: LanthaScreen Eu kinase binding assay, TYRO3. As to conditions: Tracer 236. As to the method:
as §1, §2, §3, §4, §5

The target of test [3] is T3, Mer (Homo sapiens, UniProt Q12866).
T3 construct: purchased Life Technologies
T3 sequence (Q12866 21-999): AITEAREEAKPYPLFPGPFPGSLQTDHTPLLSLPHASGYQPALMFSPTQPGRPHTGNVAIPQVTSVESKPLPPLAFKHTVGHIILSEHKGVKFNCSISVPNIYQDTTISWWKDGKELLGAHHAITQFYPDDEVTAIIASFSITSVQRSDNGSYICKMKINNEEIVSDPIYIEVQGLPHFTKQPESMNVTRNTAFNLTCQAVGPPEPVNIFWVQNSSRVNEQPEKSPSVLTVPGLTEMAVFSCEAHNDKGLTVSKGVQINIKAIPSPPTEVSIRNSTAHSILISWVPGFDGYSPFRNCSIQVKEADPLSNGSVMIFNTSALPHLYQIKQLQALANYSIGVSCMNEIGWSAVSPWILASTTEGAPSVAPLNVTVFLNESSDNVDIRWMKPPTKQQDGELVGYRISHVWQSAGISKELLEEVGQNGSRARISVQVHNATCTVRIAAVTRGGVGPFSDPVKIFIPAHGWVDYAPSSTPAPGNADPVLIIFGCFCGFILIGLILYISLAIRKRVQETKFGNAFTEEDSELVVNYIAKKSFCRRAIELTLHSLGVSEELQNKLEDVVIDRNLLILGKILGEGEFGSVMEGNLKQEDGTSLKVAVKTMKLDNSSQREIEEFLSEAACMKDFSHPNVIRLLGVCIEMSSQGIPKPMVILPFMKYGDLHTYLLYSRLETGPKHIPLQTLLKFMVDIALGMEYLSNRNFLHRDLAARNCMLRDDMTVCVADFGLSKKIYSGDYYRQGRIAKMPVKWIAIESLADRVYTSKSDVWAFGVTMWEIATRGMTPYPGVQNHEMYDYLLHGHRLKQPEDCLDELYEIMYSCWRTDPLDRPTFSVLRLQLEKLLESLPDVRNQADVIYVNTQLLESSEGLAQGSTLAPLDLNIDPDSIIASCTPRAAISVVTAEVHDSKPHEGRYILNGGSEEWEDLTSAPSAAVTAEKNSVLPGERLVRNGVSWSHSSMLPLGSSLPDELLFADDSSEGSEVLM
In words: LanthaScreen Eu kinase binding assay, Mer. As to conditions: Tracer 236. As to the method: as §1, §2, §3, §4, §5

Test [4] concerns the target T4, Axl (Homo sapiens, UniProt P30530).
T4 construct: purchased Life Technologies
T4 sequence (P30530 26-894): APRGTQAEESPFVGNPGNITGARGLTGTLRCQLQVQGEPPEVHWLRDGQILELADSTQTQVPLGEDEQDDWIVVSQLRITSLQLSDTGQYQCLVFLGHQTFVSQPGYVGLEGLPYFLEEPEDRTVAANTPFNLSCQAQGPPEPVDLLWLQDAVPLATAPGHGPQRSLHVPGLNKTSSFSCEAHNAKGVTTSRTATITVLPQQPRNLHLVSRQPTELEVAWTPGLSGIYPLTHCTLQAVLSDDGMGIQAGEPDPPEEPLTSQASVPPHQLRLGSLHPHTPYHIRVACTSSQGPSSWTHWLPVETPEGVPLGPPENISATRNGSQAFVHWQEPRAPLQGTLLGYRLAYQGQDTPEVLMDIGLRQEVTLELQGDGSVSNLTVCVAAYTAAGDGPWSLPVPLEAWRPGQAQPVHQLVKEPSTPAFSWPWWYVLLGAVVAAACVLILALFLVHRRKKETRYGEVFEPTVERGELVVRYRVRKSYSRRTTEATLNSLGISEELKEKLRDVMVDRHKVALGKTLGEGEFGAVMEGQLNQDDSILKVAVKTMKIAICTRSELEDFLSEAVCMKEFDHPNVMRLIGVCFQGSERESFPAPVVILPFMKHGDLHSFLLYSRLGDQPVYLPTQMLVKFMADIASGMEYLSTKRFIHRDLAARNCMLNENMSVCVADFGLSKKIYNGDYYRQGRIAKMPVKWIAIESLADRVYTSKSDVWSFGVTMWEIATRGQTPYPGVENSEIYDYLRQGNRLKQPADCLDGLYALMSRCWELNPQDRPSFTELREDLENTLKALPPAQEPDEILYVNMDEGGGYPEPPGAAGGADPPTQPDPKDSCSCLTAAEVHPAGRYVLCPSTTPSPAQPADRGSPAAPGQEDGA
As to the kind of experiment: LanthaScreen Eu kinase binding assay, Axl. The conditions noted are these: Tracer 236. As to the method: as §1, §2, §3, §4, §5

SMILES strings stand for the structures.

T1 sequence (P08581 25-1390): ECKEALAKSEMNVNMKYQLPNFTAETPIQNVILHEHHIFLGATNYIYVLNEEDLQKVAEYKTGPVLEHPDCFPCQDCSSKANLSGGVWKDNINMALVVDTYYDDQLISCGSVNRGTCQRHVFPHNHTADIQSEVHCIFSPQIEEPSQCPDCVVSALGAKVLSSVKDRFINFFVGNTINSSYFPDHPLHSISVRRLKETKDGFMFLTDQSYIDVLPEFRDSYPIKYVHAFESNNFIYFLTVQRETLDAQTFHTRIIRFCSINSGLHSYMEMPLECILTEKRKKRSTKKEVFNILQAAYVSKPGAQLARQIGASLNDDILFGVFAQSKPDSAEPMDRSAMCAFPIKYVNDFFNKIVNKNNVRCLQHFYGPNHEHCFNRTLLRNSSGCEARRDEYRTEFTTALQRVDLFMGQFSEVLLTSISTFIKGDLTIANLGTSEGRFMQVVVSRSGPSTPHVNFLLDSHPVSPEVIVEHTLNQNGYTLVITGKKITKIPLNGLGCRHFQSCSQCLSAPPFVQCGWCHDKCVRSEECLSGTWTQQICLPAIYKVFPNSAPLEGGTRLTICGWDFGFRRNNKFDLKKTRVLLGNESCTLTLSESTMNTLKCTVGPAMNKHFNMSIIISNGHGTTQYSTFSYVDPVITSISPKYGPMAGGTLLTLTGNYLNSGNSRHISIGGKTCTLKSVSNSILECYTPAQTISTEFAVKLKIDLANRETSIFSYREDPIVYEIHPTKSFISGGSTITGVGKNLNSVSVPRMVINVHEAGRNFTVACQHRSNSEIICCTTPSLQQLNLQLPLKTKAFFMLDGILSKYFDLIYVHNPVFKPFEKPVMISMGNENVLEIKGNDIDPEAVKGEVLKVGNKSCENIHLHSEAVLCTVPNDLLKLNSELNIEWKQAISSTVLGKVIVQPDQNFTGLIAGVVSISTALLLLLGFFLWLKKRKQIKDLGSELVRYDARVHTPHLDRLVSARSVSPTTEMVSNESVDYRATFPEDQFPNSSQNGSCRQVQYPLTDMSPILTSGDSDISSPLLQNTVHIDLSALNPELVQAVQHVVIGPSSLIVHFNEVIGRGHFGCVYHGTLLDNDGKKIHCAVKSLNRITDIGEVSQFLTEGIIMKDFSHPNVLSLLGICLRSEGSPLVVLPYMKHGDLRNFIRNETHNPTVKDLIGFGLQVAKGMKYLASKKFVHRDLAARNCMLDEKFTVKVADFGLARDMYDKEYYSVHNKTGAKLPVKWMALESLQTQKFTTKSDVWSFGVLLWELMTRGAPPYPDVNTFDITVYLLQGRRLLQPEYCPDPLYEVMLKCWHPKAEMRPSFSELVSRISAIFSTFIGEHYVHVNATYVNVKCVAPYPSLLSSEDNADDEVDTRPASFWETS

As a reminder, the Kd is a measure of binding affinity in units of concentration. Regarding `CCOc1cn(-c2cnc(C#N)cn2)nc1C(=O)Nc1ccc(Oc2ccnc3cc(OC)c(OC)cc23)cn1` [Compound 54], the Kd in test [1], in test [2], in test [3] and in test [4] was ≥ 1 µM each time.

Turning to `CCOc1cn(CCN(C)C)nc1C(=O)Nc1ccc(Oc2ccnc3cc(OC)c(OC)cc23)cn1` [Compound 49], the dissociation constant Kd is 0.1 to 1 µM in test [1], 0.1 to 1 µM in test [2], < 0.1 µM in test [3] and 0.1 to 1 µM in test [4].

As to `CCOc1cnn(-c2ccc(Cl)cc2C(F)(F)F)c1C(=O)Nc1ccc(Oc2ccnc3cc(OC)c(OC)cc23)cn1` [Compound 103], the Kd in test [1], in test [2], in test [3] and in test [4] was 0.1 to 1 µM throughout.

On to `CCOc1cnn(Cc2cccnc2)c1C(=O)Nc1ccc(Oc2ccnc3cc(OC)c(OC)cc23)cn1` [Compound 84], for which the Kd in test [1] is < 0.1 µM; in test [2], ≥ 1 µM; in test [3], < 0.1 µM; in test [4] it was 0.1 to 1 µM.

Take `CCOc1cn(-c2cnc(C(F)(F)F)nc2)nc1C(=O)Nc1ccc(Oc2ccnc3cc(OC)c(OC)cc23)cn1` [Compound 144]: the Kd was 0.1 to 1 µM in test [1], 0.1 to 1 µM in test [2], < 0.1 µM in test [3] and < 0.1 µM in test [4].

As for `CCOc1cn(CCO)nc1C(=O)Nc1ccc(Oc2ccnc3cc(OC)c(OC)cc23)cn1` [Compound 70], the equilibrium dissociation constant (Kd) in test [1] was 0.1 to 1 µM; in test [2] it was 0.1 to 1 µM; in test [3], < 0.1 µM; in test [4], 0.1 to 1 µM.

For `CCOc1cn(-c2cnc(N)nc2)nc1C(=O)Nc1ccc(Oc2ccnc3cc(OC)c(OC)cc23)c(C)c1` [Compound 140], the Kd was < 0.1 µM in test [1], 0.1 to 1 µM in test [2], < 0.1 µM in test [3] and < 0.1 µM in test [4].

`CCOc1cn(-c2ccc(C#N)nc2)nc1C(=O)Nc1ccc(Oc2ccnc3cc(OC)c(OC)cc23)cn1` [Compound 50]: the Kd in test [1] was ≥ 1 µM; in test [2], ≥ 1 µM; in test [3], ≥ 1 µM; in test [4], 0.1 to 1 µM.

With `CCOc1cn(-c2ccc(NC(C)C)cc2Cl)nc1C(=O)Nc1ccc(Oc2ccnc3cc(OC)c(OC)cc23)cn1` [Compound 24], the dissociation constant Kd is 0.1 to 1 µM in test [1], ≥ 1 µM in test [2], < 0.1 µM in test [3] and 0.1 to 1 µM in test [4].

Regarding `CCOc1cn(Cc2cccnc2)nc1C(=O)Nc1ccc(Oc2ccnc3cc(OC)c(OC)cc23)cn1` [Compound 83], the Kd in test [1] was < 0.1 µM; in test [2], 0.1 to 1 µM; in test [3] it was < 0.1 µM; in test [4] it was < 0.1 µM.

On to `CCOc1cnn(CC2CCN(C)CC2)c1C(=O)Nc1ccc(Oc2ccnc3cc(OC)c(OC)cc23)cc1F` [Compound 220], for which the Kd in test [1], in test [2], in test [3] and in test [4] was ≥ 1 µM in each case.

On to `COc1cc2nccc(Oc3ccc(NC(=O)c4nn(-c5cc(F)ccc5Cl)cc4OCC(F)(F)F)nc3)c2cc1OC` [Compound 279], for which the Kd in test [1], in test [2], in test [3] and in test [4] was < 0.1 µM in each case.

With `CCOc1cn(-c2ccc(C(C)(C)C)cc2)nc1C(=O)Nc1ccc(Oc2ccnc3cc(OC)c(OC)cc23)cn1` [Compound 121], the Kd in test [1] was 0.1 to 1 µM; in test [2], ≥ 1 µM; in test [3], < 0.1 µM; in test [4] it was 0.1 to 1 µM.

Regarding `CCOc1cn(-c2cnc(F)cn2)nc1C(=O)Nc1ccc(Oc2ccnc3cc(OC)c(OC)cc23)cn1` [Compound 171], the Kd in test [1] is < 0.1 µM; in test [2] it was 0.1 to 1 µM; in test [3] it was < 0.1 µM; in test [4] it was < 0.1 µM.

With `CCOc1cn(-c2ncc(N)nc2C)nc1C(=O)Nc1ccc(Oc2ccnc3cc(OC)c(OC)cc23)cn1` [Compound 143], the Kd in test [1], in test [2], in test [3] and in test [4] was < 0.1 µM in each case.

For the molecule `CCOc1nn(-c2cccnc2)cc1C(=O)Nc1ccc(Oc2ccnc3cc(OC)c(OC)cc23)cn1` [Compound 46], the dissociation constant (Kd) in test [1], in test [2], in test [3] and in test [4] was ≥ 1 µM throughout.

Regarding `CCOc1cn(-c2cnccn2)nc1C(=O)NC1CC(Oc2ccnc3cc(OC)c(OC)cc23)C1` (stereo not drawn) [Compound 204], the Kd is 0.1 to 1 µM in test [1], ≥ 1 µM in test [2], 0.1 to 1 µM in test [3] and ≥ 1 µM in test [4].

Regarding `CCOc1cnn(CCOC(F)F)c1C(=O)Nc1ccc(Oc2ccnc3cc(OC)c(OC)cc23)cn1` [Compound 78], the Kd in test [1] was 0.1 to 1 µM; in test [2], ≥ 1 µM; in test [3], 0.1 to 1 µM; in test [4], ≥ 1 µM.
